Data reported in US10023557B2 (LifeSci Pharmaceuticals, Inc., priority 2015, dated 2018).

Target: human plasma kallikrein (Homo sapiens (Human), UniProt P03952)
Assay: In vitro enzyme inhibition of human plasma kallikrein (PFR-AMC cleavage)
Assay type: biochemical
Settings: Pro-Phe-Arg-AMC substrate, 37° C., read-out: hPK IC50
Description: The ability of the compounds disclosed herein to inhibit human plasma kallikrein activity was quantified according to the procedures below.
A 10 mM solution of the test compound was made in DMSO. […] A control tube containing only DMSO is included. 16 μL of each compound test solution was combined with 384 μL of assay buffer (50 mM Tris-HCl pH 7.5, 150 mM NaCl, 0.01% Triton X-100) to yield a “4× test compound buffer stock”.
These solutions are hereby referred to as 4× hPK and 2×PFR-AMC, respectively.
50 μL was removed from this mixture and placed into duplicate wells on a Microfluor 1Black U-bottom microtiter plate (Thermo Scientific). This plate was incubated for 5 minutes at 37° C. To each well, 50 μL of pre-warmed 2×PFR-AMC was added to start the enzymatic reaction. Cleavage of PFR-AMC was monitored in a Biotek Synergy H4 reader set at 37° C. Readings are taken every 43 seconds for 1 hour. […] The IC50 is calculated using the Gen5 (Biotek Instruments).
The ability of the compounds in Table 3 to inhibit human plasma kallikrein activity was determined.

human plasma kallikrein, sequence (P03952 391-638): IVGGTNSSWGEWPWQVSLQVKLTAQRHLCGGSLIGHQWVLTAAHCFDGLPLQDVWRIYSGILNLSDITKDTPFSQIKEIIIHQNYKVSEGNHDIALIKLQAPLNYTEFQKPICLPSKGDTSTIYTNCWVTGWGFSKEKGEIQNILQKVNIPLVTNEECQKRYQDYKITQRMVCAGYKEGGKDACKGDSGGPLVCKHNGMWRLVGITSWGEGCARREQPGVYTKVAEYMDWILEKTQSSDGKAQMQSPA
human plasma kallikrein, sequence (P03952 20-390 partner): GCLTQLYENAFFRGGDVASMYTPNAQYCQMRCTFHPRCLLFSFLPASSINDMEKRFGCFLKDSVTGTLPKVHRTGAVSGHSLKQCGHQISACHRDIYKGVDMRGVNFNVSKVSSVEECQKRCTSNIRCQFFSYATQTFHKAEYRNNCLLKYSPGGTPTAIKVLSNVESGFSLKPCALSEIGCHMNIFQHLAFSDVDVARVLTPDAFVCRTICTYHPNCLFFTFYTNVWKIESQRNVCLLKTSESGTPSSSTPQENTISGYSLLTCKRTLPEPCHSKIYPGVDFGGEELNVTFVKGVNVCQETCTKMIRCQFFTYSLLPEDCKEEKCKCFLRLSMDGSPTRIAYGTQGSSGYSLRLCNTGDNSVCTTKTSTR

Compound	IC50 [nM]
COCCNc1ccc(CNC(=O)c2ccnc(Cc3ccc4ncc(Cl)cc4c3)c2)c(C)n1 [Example 242, 2-((3-chloroquinolin-6-yl)methyl)-N-((6-((2-methoxyethyl)amino)-2-methylpyridin-3-yl)methyl)isonicotinamide]	100 to 1000
O=C(NCc1cnc2[nH]nc(C(F)(F)F)c2c1)c1ccnc(Cc2ccc3ncc(Cl)cc3c2)c1 [Example 271, 2-((3-chloroquinolin-6-yl)methyl)-N-((3-(trifluoromethyl)-1H-pyrazolo[3,4-b]pyridin-5-yl)methyl)isonicotinamide]	100 to 1000
Cc1cc(N)nc(C)c1CNC(=O)c1ccnc(C(=O)c2ccc3ncc(Cl)cc3c2)c1 [Example 274, N-((6-amino-2,4-dimethylpyridin-3-yl)methyl)-2-(3-chloroquinoline-6-carbonyl)isonicotinamide]	100 to 1000
O=C(NCc1ccc2[nH]cc(Cl)c2c1F)c1ccnc(Cc2ccc3ncc(N4CCCC4)cc3c2)c1 [Example 311, N-((3-chloro-4-fluoro-1H-indol-5-yl)methyl)-2-((3-(pyrrolidin-1-yl)quinolin-6-yl)methyl)isonicotinamide]	100 to 1000
Cc1cc(N)nc(C)c1CNC(=O)c1ccnc(Cc2cc3cc(C(F)(F)F)ccc3[nH]2)c1 [Example 151, N-((6-amino-2,4-dimethylpyridin-3-yl)methyl)-2-((5-(trifluoromethyl)-1H-indol-2-yl)methyl)isonicotinamide]	100 to 1000
Cc1cc(N)nc(C)c1CNC(=O)c1ccnc(Cc2cc3cc(Cl)ccc3[nH]2)c1 [Example 147, N-((6-amino-2,4-dimethylpyridin-3-yl)methyl)-2-((5-chloro-1H-indol-2-yl)methyl)isonicotinamide]	< 100
Cc1cc(C(C)(C)O)nc(C)c1CNC(=O)c1ccnc(Cc2ccc3ncc(C(F)(F)F)cc3c2)c1 [Example 174, N-((6-(2-hydroxypropan-2-yl)-2,4-dimethylpyridin-3-yl)methyl)-2-((3-(trifluoromethyl)quinolin-6-yl)methyl)isonicotinamide]	> 10000
O=C(NCc1cnc2[nH]cc(Cl)c2c1)c1ccnc(Cc2ccc3ncc(N4CCOCC4)cc3c2)c1 [Example 294, N-((3-chloro-1H-pyrrolo[2,3-b]pyridin-5-yl)methyl)-2-((3-morpholinoquinolin-6-yl)methyl)isonicotinamide]	1000 to 10000
Cc1cnc2c(C(C)(C)O)cc(Cc3cc(C(=O)NCc4ccc5[nH]cc(Cl)c5c4F)ccn3)cc2c1 [Example 315, N-((3-chloro-4-fluoro-1H-indol-5-yl)methyl)-2-((8-(2-hydroxypropan-2-yl)-3-methylquinolin-6-yl)methyl)isonicotinamide]	< 100
N-(6-amino-2,4-dimethyl-pyridin-3-ylmethyl)-2-(2-cyano-quinolin-6-ylmethyl)-isonicotinamide [Example 131]	< 100
Cc1cnc2c(C(C)(C)O)cc(Cc3cc(C(=O)NCc4ccc5c(N)nccc5c4)ccn3)cc2c1 [Example 319]	< 100
Cc1cc(N)nc(C)c1CNC(=O)c1cc(Cc2ccc3ncc(Cl)cc3c2)nc(-c2n[nH]c(=O)[nH]2)c1 [Example 196, N-((6-amino-2,4-dimethylpyridin-3-yl)methyl)-2-((3-chloroquinolin-6-yl)methyl)-6-(5-oxo-4,5-dihydro-1H-1,2,4-triazol-3-yl)isonicotinamide]	< 100
O=C(NCc1cc2cc[nH]c2cc1F)c1ccnc(Cc2ccc3ncc(Cl)cc3c2)c1 [Example 259, 2-((3-chloroquinolin-6-yl)methyl)-N-((6-fluoro-1H-indol-5-yl)methyl)isonicotinamide]	100 to 1000
O=C(NCc1cc2c(Cl)c[nH]c2cc1F)c1ccnc(Cc2ccc3ncc(N4CCC4)cc3c2)c1 [Example 320, 2-((3-(azetidin-1-yl)quinolin-6-yl)methyl)-N-((3-chloro-6-fluoro-1H-indol-5-yl)methyl)isonicotinamide]	< 100

The remaining lines, values ahead:

IC50 [nM]	Compound
100 to 1000	Cc1ccn2nnc(CNC(=O)c3ccnc(Cc4ccc5ncc(Cl)cc5c4)c3)c2c1 [Example 155, 2-((3-chloroquinolin-6-yl)methyl)-N-((5-methyl-[1,2,3]triazolo[1,5-a]pyridin-3-yl)methyl)isonicotinamide]
1000 to 10000	Cc1n[nH]c2ccc(CNC(=O)c3ccnc(Cc4ccc5ncc(Cl)cc5c4)c3)cc12 [Example 261, 2-((3-chloroquinolin-6-yl)methyl)-N-((3-methyl-1H-indazol-5-yl)methyl)isonicotinamide]
100 to 1000	NCc1ccc(CNC(=O)c2ccnc(Cc3ccc4ncc(Cl)cc4c3)c2)cc1 [Example 168, N-(4-(aminomethyl)benzyl)-2-((3-chloroquinolin-6-yl)methyl)isonicotinamide]
100 to 1000	Cc1ccn2c(C)nc(CNC(=O)c3ccnc(Cc4ccc5ncc(C(F)(F)F)cc5c4)c3)c2c1 [Example 159, N-((3,7-dimethylimidazo[1,5-a]pyridin-1-yl)methyl)-2-((3-(trifluoromethyl)quinolin-6-yl)methyl)isonicotinamide]
100 to 1000	Cc1ccn2c(C)nc(CNC(=O)c3ccnc(Cc4ccc5ncc(Cl)cc5c4)c3)c2c1 [Example 158, 2-((3-chloroquinolin-6-yl)methyl)-N-((3,7-dimethylimidazo[1,5-a]pyridin-1-yl)methyl)isonicotinamide]
< 100	Cc1nc(N)ccc1CNC(=O)c1ccnc(Cc2cnc3cc(F)c(Cl)cc3c2)c1 [Example 227, N-((6-amino-2-methylpyridin-3-yl)methyl)-2-((6-chloro-7-fluoroquinolin-3-yl)methyl)isonicotinamide]
100 to 1000	Cc1nc2[nH]cc(Cl)c2c(C)c1CNC(=O)c1ccnc(Cc2ccc3ncc(Cl)cc3c2)c1 [Example 192, N-((3-chloro-4,6-dimethyl-1H-pyrrolo[2,3-b]pyridin-5-yl)methyl)-2-((3-chloroquinolin-6-yl)methyl)isonicotinamide]
100 to 1000	Cc1nc2c(cc1CNC(=O)c1ccnc(Cc3ccc4ncc(C(F)(F)F)cc4c3)c1)CCN2 [Example 162, N-((6-methyl-2,3-dihydro-1H-pyrrolo[2,3-b]pyridin-5-yl)methyl)-2-((3-(trifluoromethyl)quinolin-6-yl)methyl)isonicotinamide]
> 10000	Cc1nc(N)cc(C#N)c1CNC(=O)c1ccnc(Cc2ccc3ncc(Cl)cc3c2)c1 [Example 167, N-((6-amino-4-cyano-2-methylpyridin-3-yl)methyl)-2-((3-chloroquinolin-6-yl)methyl)isonicotinamide]
> 10000	NCc1ccc(CNC(=O)c2ccnc(Cc3ccc4ncc(Cl)cc4c3)c2)nc1 [Example 170, N-((5-(aminomethyl)pyridin-2-yl)methyl)-2-((3-chloroquinolin-6-yl)methyl)isonicotinamide]
100 to 1000	Cc1nc(N)ccc1CNC(=O)c1ccnc(Cc2cc(-c3nnn[nH]3)c3ncc(Cl)cc3c2)c1 [Example 273, N-((6-amino-2-methylpyridin-3-yl)methyl)-2-((3-chloro-8-(1H-tetrazol-5-yl)quinolin-6-yl)methyl)isonicotinamide]
1000 to 10000	Cc1nc(N)ccc1C(C)NC(=O)c1ccnc(Cc2ccc3ncc(Cl)cc3c2)c1 (stereo not drawn) [Example 237, N-(1-(6-amino-2-methylpyridin-3-yl)ethyl)-2-((3-chloroquinolin-6-yl)methyl)isonicotinamide]
< 100	Cc1cc(N)nc(C)c1CNC(=O)c1ccnc(Cc2ccc3ncc(CO)cc3c2)c1 [Example 257, N-((6-amino-2,4-dimethylpyridin-3-yl)methyl)-2-((3-(hydroxymethyl)quinolin-6-yl)methyl)isonicotinamide]
> 10000	Cc1nc2c(cc1CNC(=O)c1ccnc(Cc3ccc4ncc(C(F)(F)F)cc4c3)c1)CNC2 [Example 164, N-((2-methyl-6,7-dihydro-5H-pyrrolo[3,4-b]pyridin-3-yl)methyl)-2-((3-(trifluoromethyl)quinolin-6-yl)methyl)isonicotinamide]
100 to 1000	Cc1[nH]c2ccc(Cl)cc2c1CNC(=O)c1ccnc(Cc2ccc3ncc(Cl)cc3c2)c1 [Example 270, N-((5-chloro-2-methyl-1H-indol-3-yl)methyl)-2-((3-chloroquinolin-6-yl)methyl)isonicotinamide]
100 to 1000	Cc1nc(N)ccc1CNC(=O)c1ccnc(Cc2ccc3ncc(CO)cc3c2)c1 [Example 258, N-((6-amino-2-methylpyridin-3-yl)methyl)-2-((3-(hydroxymethyl)quinolin-6-yl)methyl)isonicotinamide]
< 100	CCc1cnc2ccc(Cc3cc(C(=O)NCc4cnc5[nH]cc(Cl)c5c4)ccn3)cc2c1 [Example 281, N-((3-chloro-1H-pyrrolo[2,3-b]pyridin-5-yl)methyl)-2-((3-ethylquinolin-6-yl)methyl)isonicotinamide]
1000 to 10000	Nc1cnc2ccc(Cc3cc(C(=O)NCc4cnc5[nH]cc(Cl)c5c4)ccn3)cc2c1 [Example 300, 2-((3-aminoquinolin-6-yl)methyl)-N-((3-chloro-1H-pyrrolo[2,3-b]pyridin-5-yl)methyl)isonicotinamide]
< 100	Cc1nc2c(c(C)c1CNC(=O)c1ccnc(Cc3ccc4ncc(Cl)cc4c3)c1)CCN2 [Example 175, 2-((3-chloroquinolin-6-yl)methyl)-N-((4,6-dimethyl-2,3-dihydro-1H-pyrrolo[2,3-b]pyridin-5-yl)methyl)isonicotinamide]
